Laboratory results published in PubChem BioAssay (NCI).
“And” between values parts separate entries of the source, which are not always exact repeats. Equal values may be shown once.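 Step 1: Grow cells in 96-well plates. Step 2: Expose to compound for 48 hours at 5 concentrations. Step 3: Interpolate endpoints linearly; if unreached, use highest concentration. GI50 marks 50% less growth. TGI denotes the concentration required for complete inhibition of growth.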

Assays:
Test in all cases: DTP human tumour cell line panel, 48 h
[1] = system: 786-0 renal
[2] = system: CCRF-CEM leukemia
[3] = system: HCT-116 colon
[4] = system: HS 578T breast
[5] = system: KM12 colon
[6] = system: MOLT-4 leukemia
[7] = system: NCI-H226 lung
[8] = system: NCI/ADR-RES ovarian
[9] = system: SF-295 CNS
[10] = system: SNB-75 CNS

Row | Compound | GI50 [1] | TGI [1] [µM] | GI50 [2] | TGI [2] | GI50 [3] | TGI [3] [µM] | GI50 [4] | TGI [4] | GI50 [5] | TGI [5] [µM] | GI50 [6] | TGI [6] [µM] | GI50 [7] | TGI [7] | GI50 [8] | TGI [8] [µM] | GI50 [9] | TGI [9] [µM] | GI50 [10] | TGI [10] [µM]
1 | Oc1c(C(Nc2ccccn2)c2cccc(Oc3ccccc3)c2)ccc2cccnc12 (stereo unspecified) | 0.657 µM | 11.1 | 0.477 µM | > 100 µM | 0.449 µM | 16.6 | 0.74 µM | > 100 µM | 0.45 µM | 23.4 | 0.436 µM | > 100 | 1.36 µM | 9.32 µM | 0.416 µM | > 100 | 0.392 µM | 13.3 | 0.433 µM | 11.4
2 | O=C(c1ccccc1)C(Cl)C(Cl)c1ccccc1 (stereo unspecified) | 1.79 µM | 3.52 | 1.67 µM | 6.93 µM | 1.44 µM | 2.95 | 9.28 µM | 45.3 µM | 3.76 µM | 15.1 | 2.33 µM | 6.25 | 2.17 µM | 5.35 µM | 2.44 µM | 7.35 | 12.9 µM | 26 | 11.2 µM | 23.3
3 | O=C(CCCn1c2c(sc3ccccc32)c(=O)n2nnc(-c3ccccc3)c12)NCCc1cnc[nH]1 | 0.594 µM | 1.79 | 0.0368 µM | – | – | – | 0.783 µM | 2.19 µM | 0.593 µM | 3.19 | 0.815 µM | > 100 | 4.43 µM | 14.1 µM | 0.972 µM | > 24.4 | 0.456 µM | 2.11 | 1.95 µM | 3.51
4 | O=C1Nc2ccccc2/C1=C\c1c(-c2ccccc2)nc2sccn12 | 2.39 µM | 9.23 | 0.689 µM | 19.8 µM | 1.7 µM | 8.96 | 5.58 µM | 18.7 µM | 0.833 µM | 20.1 | 1.1 µM | > 37.5 | 4.27 µM | 23 µM | 1.17 µM | 5.13 | 0.797 µM | 3.24 | 6.74 µM | 28.4
5 | C[C@@H](N)COc1ccc(-c2cnc3ccc(N[C@H](C)c4cccc(F)c4)nn23)cc1 | 1.33 µM | 2.74 | 2.68 µM | 7.88 µM | 1.46 µM | 3.07 | 1.61 µM | 3.82 µM | – | 1.5 | 2 µM | 6.44 | 1.62 µM | 7.31 µM | 2.43 µM | 7.12 | 1.8 µM | 4.01 | 5.15 µM | 20.6
6 | Cc1ccc([P+](Cc2ccccc2)(c2ccccc2)c2ccccc2)cc1 | 4.11 µM | > 100 | 2.5 µM | 18.9 µM | 1.81 µM | > 100 | 3.19 µM | 83.4 µM | 1.69 µM | 12 | 3.32 µM | 14 | 2.57 µM | > 100 µM | 47.8 µM | > 100 | 2.36 µM | 7.69 | 2.21 µM | 9.71
7 | O=C(Cn1c(C(=O)c2ccc(Cl)cc2)nc(-c2ccc(Cl)cc2)c1-c1ccc(Cl)cc1)c1ccccc1 | > 100 µM | > 100 | > 100 µM | > 100 µM | > 100 µM | > 100 | > 100 µM | > 100 µM | > 100 µM | > 100 | > 100 µM | > 100 | > 100 µM | > 100 µM | > 100 µM | > 100 | > 100 µM | > 100 | > 100 µM | > 100
8 | Fc1cc(F)c(F)c(S)c1F | – | > 100 | – | > 100 µM | – | > 100 | – | > 100 µM | – | > 100 | – | 66 | – | > 100 µM | – | 38.6 | – | > 100 | – | > 100
9 | CC(=O)OCC12CN(C#N)C3C4COC(CC41)C1(C(=O)N(C)c4ccccc41)C32 (stereo unspecified) | – | > 100 | – | 53 µM | – | 40.7 | – | 55.9 µM | – | > 100 | – | > 100 | – | 49.5 µM | – | 95.8 | – | > 100 | – | 91.4
10 | Oc1cc(N2CC2)c(O)cc1N1CC1 | 0.742 µM | 4.69 | 0.556 µM | > 45 µM | 0.615 µM | 10.8 | 2.33 µM | > 22.9 µM | 1.63 µM | 4.44 | 0.591 µM | 7.89 | 1.63 µM | 4.59 µM | 0.961 µM | 7.55 | 0.377 µM | 5.32 | 1.14 µM | 2.6
11 | CN1CCN(Cc2ccc(NC(=O)c3cncc(C#Cc4c(N)ncc5ccc(C#N)cc45)c3)cc2C(F)(F)F)CC1 | 0.901 µM | 1.71 | 1.04 µM | 3.08 µM | 0.7 µM | 1.44 | 0.741 µM | 9.45 µM | 0.005 µM | 0.791 | 0.801 µM | 2.96 | 0.294 µM | 14.5 µM | 1.11 µM | 2.63 | 8.67 µM | 18 | 2.29 µM | 4.54
12 | N#Cc1c(NCc2ccccc2)nc(NCc2ccccc2)c(C#N)c1-c1ccc(Cl)cc1 | > 50 µM and 41.5 µM | > 100 | > 50 µM and 22.5 µM | > 50 µM and 49.5 µM | > 50 µM and 24.6 µM | > 100 | > 50 µM and 37.8 µM | > 50 µM and 86.6 µM | > 50 µM and 85.8 µM | > 100 | > 50 µM and 76.9 µM | > 100 | > 50 µM and 25.6 µM | > 50 µM and 81.4 µM | > 50 µM and 96.6 µM | > 100 | > 50 µM and 36 µM | > 100 | > 50 µM and 34.7 µM | > 100
13 | CC(C)NC(=O)OCc1c(COC(=O)NC(C)C)c(-c2ccc[n+](COC(=O)Cc3ccccc3)c2)n2c1CCC2 | – | 44.4 | – | > 100 µM | – | > 100 | – | > 100 µM | – | > 100 | – | > 100 | – | > 100 µM | – | > 100 | – | > 100 | – | > 100
